Literature values as cited in patent publication US20200046722A1, “METHOD AND COMPOSITION FOR TREATING EATING DISORDERS” (India Globalization Capital, Inc., priority 2017, published 2020).

How the values were obtained:
[1] = tested on: patients with cancer related anorexia-cachexia syndrome; conditions: at the dosage administered
[2] = tested on: cats; conditions: versus placebo

Row | SMILES | appetite versus placebo [1] | patient's quality of life versus placebo [1] | appetite in comparison with placebo [2] | food ingested in comparison with placebo [2]
1 | CCCCCc1cc(O)c2c(c1)OC(C)(C)[C@@H]1CCC(C)=C[C@@H]21 [Delta-9-tetrahydrocannabinol (THC), Delta-9-tetrahydrocannabinol] | no difference | no difference |  | 
2 | CN1CCN2c3ncccc3Cc3ccccc3C2C1 (stereo not drawn) [mirtazapine, 1,2,3,4,10,14b-hexahydro-2-methylpyrazino[2,1-α]pyrido[2,3-c]benzazepine] |  |  | greater appetite | ingested significantly more food
